As a reminder, the IC50 is the concentration that gives 50% inhibition. Broadly, the pKa is the negative logarithm of the acid dissociation constant. The low end stands for a group that gives up its proton readily, the high end for a group that holds its proton tightly.

This note sets out measurements from ChEMBL document CHEMBL1124229, “Spiro hydantoin aldose reductase inhibitors” (J Med Chem, 1988).

In series [1] the target is T1, Aldo-keto reductase family 1 member B1 (Bos taurus, UniProt P16116). In words: In vitro inhibitory activity towards partially purified calf lens aldose reductase; value ranges from 10E-6 - 10E-7.
Series [2] is filed under the species Rattus norvegicus. Briefly: Ability to cause 50% reduction in sorbitol levels of sciatic nerve of streptozotocinized rats was determined. In kind it is functional.
In series [3] the target is T1, Aldo-keto reductase family 1 member B1. Briefly: In vitro inhibition of partially purified calf lens aldose reductase; value ranges from 10E-5 to 10E-6.
The species entered for series [4] is Rattus norvegicus. In words: Ability to cause 50% reduction in sorbitol levels of sciatic nerve of streptozotocinized rats was determined; value ranges from 1.5-10. It counts as functional.
Series [5] is described as follows: pKa in DMF/H2O was measured. In kind it is physicochemical.
For series [6], the target named is T1, Aldo-keto reductase family 1 member B1. Briefly: In vitro inhibition of partially purified calf lens aldose reductase.
The species named for series [7] is Rattus norvegicus. Briefly: 50% reduction in sorbitol accumulation in isolated sciatic nerves incubated in the presence of high glucose concentration. In kind it is functional. The conditions noted are these: Sciatic nerve.
The species named for series [8] is Rattus norvegicus. In words: Dose causing 50% reduction in sorbitol accumulation in sciatic nerves of streptozotocinized rats, (tid).
The target of series [9] is Aldo-keto reductase family 1 member B1 (Homo sapiens, UniProt P15121). Briefly: In vitro inhibitory activity towards partially purified human placenta aldose reductase.
The species named for series [10] is Rattus norvegicus. Briefly: Ability to cause 50% reduction in sorbitol levels of sciatic nerve of streptozotocinized rats was determined; value ranges from 0.25-0.75. In kind it is functional.
The species entered for series [11] is Rattus norvegicus. Briefly: Ability to cause 50% reduction in sorbitol levels of sciatic nerve of streptozotocinized rats was determined; value ranges from 5-10. It counts as functional.
For series [12], the target named is T1, Aldo-keto reductase family 1 member B1. Briefly: Inhibition of partially purified calf lens aldose reductase; value ranges from 10E-4 to 10e-5 M.
The species entered for series [13] is Rattus norvegicus. Briefly: Ability to cause 50% reduction in sorbitol levels of sciatic nerve of streptozotocinized rats was determined; value ranges from 10-25. It counts as functional.
The species named for series [14] is Rattus norvegicus. Briefly: Ability to cause 50% reduction in sorbitol levels of sciatic nerve of streptozotocinized rats was determined; value ranges from 250-500. In kind it is functional.
The mark [15] stands for this setting: Rattus norvegicus, Sciatic nerve, read-out: ED50.

SMILES strings stand for the structures.

In the case of `O=C1NC(=O)C2(CCS(=O)(=O)c3ccc(F)cc32)N1` (stereo not given), the half-maximal inhibitory concentration (IC50) in series [1] was determined as 1000 nM. Further, the ED50 in series [2] (setting [15]) amounted to 2.5 mg/kg.
`COc1cc2c(cc1OC)C1(CC2)NC(=O)NC1=O` (stereo not given): the IC50 in [3] turned out to be 10 µM. Besides, the ED50 in [2] (setting [15]) was found to be 10 mg/kg.
Consider `O=C1NC(=O)C2(CC[S+]([O-])c3ccc(F)cc32)N1` (stereo not given), for which, in [1], the concentration for half-maximal inhibition (IC50) stood at 1000 nM. The ED50 in series [2] (setting [15]) was over 1.5 mg/kg.
`O=C1NC(=O)C2(CCSc3ccc(Br)cc32)N1` (stereo not given) returned an IC50 in series [1] of 1000 nM. For the same molecule, the ED50 in series [2] (setting [15]) was 2.5 mg/kg.
On to `O=C1NC(=O)C2(CCc3cc4c(cc32)OCO4)N1` (stereo not given), for which the IC50 in [3] came to 10 µM. Further, the ED50 in [2] (setting [15]) is over 5 mg/kg.
The matching figures for `COc1ccc2c(c1)C1(CCO2)NC(=O)NC1=O` (stereo not given): 10 µM and over 2.5 mg/kg.
`O=C1NC(=O)C2(CCOc3c2ccc2ncccc32)N1` (stereo not given): inhibition in series [1] was half-maximal at 1000 nM (IC50). Also, the ED50 in [4] stood at 1.5 mg/kg.
Consider `O=C1NC(=O)[C@@]2(CCOc3ccc(Cl)cc32)O1`, for which the pKa in series [5] worked out at 5.6. The half-inhibitory concentration (IC50) in [6] was determined as 0.1 µM; in series [7], 10 µM. For the same molecule, the ED50 in series [2] (setting [15]) worked out at 2.5 mg/kg; in [8], 1e-05 M/kg.
Molecule `O=C1NC(=O)C2(CCS(=O)(=O)c3ccccc32)N1` (stereo not given) showed an IC50 in series [3] of 10 µM. Also, the ED50 in series [2] (setting [15]) was determined as 20 mg/kg.
On to `CN1C(=O)N[C@]2(CCOc3ccc(F)cc32)C1=O`, for which, in [9], the IC50 was over 100 µM. Besides, the ED50 in series [2] (setting [15]) is under 10 mg/kg.
`COc1ccc(F)c2c1CCCC21NC(=O)NC1=O` (stereo not given) came in with an IC50 in [6] of over 100 µM. In series [10], the ED50 is over 25 mg/kg.
`O=C1NC(=O)C2(CCSc3ccccc32)N1` (stereo not given) yielded a half-inhibitory concentration (IC50) in [6] of 10 µM. This molecule showed an ED50 in [11] of 5 mg/kg.
`CN1C(=O)NC(=O)[C@]12CCOc1ccc(F)cc12` registered a 50% inhibitory concentration (IC50) in [9] of 100 µM. The ED50 in [2] (setting [15]) was under 10 mg/kg.
The corresponding values for `CN1C(=O)N(C)[C@@]2(CCOc3ccc(F)cc32)C1=O` are over 100 µM and under 10 mg/kg.
`O=C1NC(=O)C2(CCc3ccccc32)N1` (stereo not given) returned a half-maximal inhibitory concentration (IC50) in series [12] of 100 µM. In addition, the ED50 in series [2] (setting [15]) and in [13] was 5 mg/kg in each case.
In turn, `O=C(O)CN1C(=O)c2cccc3cccc(c23)C1=O` [ALRESTATIN] displayed a pKa in series [5] of 4.8. Besides, the IC50 in [3] was determined as 10 µM; in series [7] it was 1000 µM. The ED50 in [14] is 250 mg/kg; in series [8], 0.001 M/kg.
`O=C1NC(=O)C2(CCOc3ccc(Cl)cc32)N1` (stereo not given) showed a half-maximal inhibitory concentration (IC50) in [6] of 0.1 µM. Besides, the ED50 in series [10] turned out to be 0.25 mg/kg.
The molecule `O=C1NC(=O)[C@]2(CCSc3ccc(F)cc32)N1` displayed an IC50 in [3] of 10 µM.
The molecule `Cc1ccc2c(c1)C1(CCO2)NC(=O)NC1=O` (stereo not given) gave an IC50 in [3] of 10 µM. In addition, the ED50 in [2] (setting [15]) is 5 mg/kg.
As to `Cc1cc(Cl)cc2c1OCCC2C(=O)O` (stereo not given), the IC50 in series [3] was determined as 10 µM.
For `O=C1NC(=O)C2(CCOc3ccc(Br)cc32)N1` (stereo not given), half-maximal inhibition in series [1] (IC50) required 1000 nM. For the same molecule, the ED50 in [2] (setting [15]) is under 1.5 mg/kg.
The corresponding values for `O=C1NC(=O)C2(CCSc3ccc(F)cc32)N1` (stereo not given) are 1000 nM and 1.5 mg/kg.
`O=C1NC(=O)C(N2C(=O)c3cccc4cccc(c34)C2=O)N1` (stereo not given) had a pKa in [5] of 9.5. Also, the results for the IC50 in [9] and in [7] were 8 µM and about 10 µM, respectively.
`O=C1NC(=O)C2(CCSc3ccc(Cl)cc32)N1` (stereo not given) registered an IC50 in series [1] of 1000 nM. Also, in series [2] (setting [15]), the ED50 stood at 2.5 mg/kg.
Regarding `O=C1NC(=O)C2(CCCc3ccccc32)N1` (stereo not given), the 50% inhibitory concentration (IC50) in [12] amounted to 100 µM. The ED50 in series [13] was 10 mg/kg.
On to `O=C1NC(=O)[C@@]2(CCOc3ccc(F)cc32)N1` (stereo in doubt; 115) [SORBINIL], for which, in series [5], the pKa is 8.7. Also, in series [7], the 50% inhibitory concentration (IC50) worked out at 1 µM. Moreover, the figures for the ED50 in [2] and in series [8] were 0.25 mg/kg and 1e-05 M/kg, respectively.
Turning to `O=C(O)CC1(CC(=O)O)CCCC1`, the 50% inhibitory concentration (IC50) in [3] came out at 10 µM; in [1] it was 1000 nM. Also, in [2] (setting [15]), the ED50 is about 500 mg/kg.
With `COc1ccc2c(c1)C1(CCC2)NC(=O)NC1=O` (stereo not given), the concentration for half-maximal inhibition (IC50) in [6] is 100 µM. Also, in series [13], the ED50 is 10 mg/kg.
